Laboratory results taken from ChEMBL document CHEMBL6096680, “Development of PRC1 Inhibitors Employing Fragment-Based Approach and NMR-Guided Optimization” (J Med Chem, 2025).
Active and inactive are the calls of the source. The rule behind the calls is not given here.

What was measured:
Homo sapiens [1] = species on record: Homo sapiens; experiment: Binding affinity to 15N-labeled RING1B (10 to 116 residues)/BMI1 (1 to 104 residues) (unknown origin) extracted from Escherichia coli BL21 (DE3) cells assessed as sum of A79, G83 and T89 chemical shift perturbations at 100 uM by NMR binding analysis
Homo sapiens [2] = species on record: Homo sapiens; experiment: Binding affinity to 15N-labeled RING1B (10 to 116 residues)/BMI1 (1 to 104 residues) (unknown origin) extracted from Escherichia coli BL21 (DE3) cells assessed as sum of A79, G83 and T89 chemical shift perturbations at 200 uM by NMR binding analysis
Homo sapiens [3] = species on record: Homo sapiens; experiment: Binding affinity to 15N-labeled RING1B (10 to 116 residues)/BMI1 (1 to 104 residues) (unknown origin) extracted from Escherichia coli BL21 (DE3) cells assessed as ratio of chemical shift perturbations at 1:2 compound concentration ration by NMR binding analysis
[4] = Binding affinity to RING1B (10 to 116 residues)/BMI1 (1 to 104 residues) (unknown origin) extracted from Escherichia coli BL21 (DE3) cells assessed as dissociation constant by ITC analysis; set-up: species or system Homo sapiens
[5] = (§1) Inhibition of 6His-tagged RING1B (10 to 116 residues)/BMI1 (1 to 104 residues) (unknown origin) extracted from Escherichia coli BL21 (DE3) cells preincubated with compound for 1 hrs followed by 3-(1-(4,26-dioxo-30-((3aS,4S,6aR)-2-oxohexahydro-1H-thieno[3,4-d]imidazol-4-yl)-7,10,13,16,19,22-hexaoxa-3,25-diazatriacontyl)-6-methoxy-1H-indol-4-yl)-5-(6-fluoro-1H-indol-4-yl)-4-isopropyl-1H-pyrrole-2-carboxylic acid addition and measured after 1 hrs by Alphascreen competition assay; set-up: species or system Homo sapiens
[6] = (§2) Inhibition of RING1B (10 to 116 residues)-BMI1 (1 to 104 residues) (unknown origin) extracted from Escherichia coli BL21 (DE3) cells using HeLa nucleosome as substrate assessed as reduction in reduction in H2AK119 ubiquitination preincubated with compound for 1 hrs followed by flag-tagged ubiquitin and substrate addition and measured after 1 hrs by Western blot analysis; set-up: species or system Homo sapiens
[7] = as §1, with “RING1A (7” for “RING1B (10”, “113 residues)-BMI1” for “116 residues)/BMI1”; set-up: species or system Homo sapiens
Homo sapiens [8] = species on record: Homo sapiens; experiment: Binding affinity to 15N-labeled RING1A (7 to 113 residues)/BMI1 (1 to 104 residues) (unknown origin) extracted from Escherichia coli BL21 (DE3) cells assessed as chemical shift perturbation by 1H-15N HSQC spectra based NMR titration analysis; conditions: dose 30-120 µM
Homo sapiens [9] = species on record: Homo sapiens; experiment: Binding affinity to 15N-labeled RING1B (10 to 116 residues)/BMI1 (1 to 104 residues) (unknown origin) extracted from Escherichia coli BL21 (DE3) cells assessed as chemical shift perturbation by 1H-15N HSQC spectra based NMR titration analysis; conditions: dose 30-120 µM
Homo sapiens [10] = species on record: Homo sapiens; experiment: Binding affinity to 15N-labeled 6His-tagged RING1B (10 to 116 residues)/PCGF1 (30 to 138 residues) (unknown origin) assessed as chemical shift perturbation by 1H-15N HSQC spectra based NMR titration analysis; conditions: dose 30-120 µM
[11] = Binding affinity to RING1A (7 to 113 residues)/BMI1 (1 to 104 residues) (unknown origin) extracted from Escherichia coli BL21 (DE3) cells assessed as dissociation constant by ITC analysis; set-up: species or system Homo sapiens
[12] = Binding affinity to RING1B (10 to 116 residues)/PCGF1 (30 to 138 residues) (unknown origin) assessed as dissociation constant by ITC analysis; set-up: species or system Homo sapiens
[13] = as §2, with “RING1A (7” for “RING1B (10”, “113 residues)/BMI1” for “116 residues)-BMI1”; set-up: species or system Homo sapiens
[14] = as §2, with “residues)/PCGF1 (30” for “residues)-BMI1 (1”, “138 residues)(unknown” for “104 residues) (unknown”, “origin)” for “origin) extracted from Escherichia coli BL21 (DE3) cells”; set-up: species or system Homo sapiens
TEX [15] = experiment: Inhibition of PRC1 in human TEX cells assessed as decrease in global H2Aub level by measuring fold change at 3.1 uM incubated for 4 days by Western blot analysis (reference value: 1); type: cell-based; conditions: time 4.0 day
TEX [16] = experiment: Inhibition of PRC1 in human TEX cells assessed as decrease in global H2Aub level by measuring fold change at 6.2 uM incubated for 4 days by Western blot analysis (reference value: 1); type: cell-based; conditions: time 4.0 day
TEX [17] = experiment: Inhibition of PRC1 in human TEX cells assessed as decrease in global H2Aub level by measuring fold change at 12.5 uM incubated for 4 days by Western blot analysis (reference value: 1); type: cell-based; conditions: time 4.0 day
TEX [18] = experiment: Inhibition of PRC1 in human TEX cells assessed as decrease in global H2Aub level by measuring fold change at 25 uM incubated for 4 days by Western blot analysis (reference value: 1); type: cell-based; conditions: time 4.0 day
TEX [19] = experiment: Downregulation of CD34 gene expression in human TEX cells at 6.2 to 50 uM incubated for 4 days by RT-qPCR analysis; type: functional, cell-based; conditions: dose 6.2-50 µM, time 4.0 day
TEX [20] = experiment: Upregulation of CEBPalpha gene expression in human TEX cells at 6.2 to 50 uM incubated for 4 days by RT-qPCR analysis; type: functional, cell-based; conditions: dose 6.2-50 µM, time 4.0 day

Activity (Homo sapiens [1]): 248 Hz | Activity (Homo sapiens [2]): 299 Hz | Ratio (Homo sapiens [3]): 0.83 | IC50 [5]: 2300 nM | IC50 [6]: 2800 nM | IC50 [7]: 2400 nM | Activity (Homo sapiens [8]): Dose-dependent-effect | Activity (Homo sapiens [9]): Dose-dependent-effect | Activity (Homo sapiens [10]): Dose-dependent-effect | Kd [12]: 1700 nM | IC50 [13]: 2600 nM | IC50 [14]: 1800 nM
SMILES: CC(C)c1c(-c2cc(F)cc3[nH]ccc23)[nH]c(C(=O)O)c1-c1c(Cl)ccc2[nH]ccc12
Kd [4]: 2000 nM | Kd [11]: 1700 nM | fold change (FC) (TEX [15]): 1.7 | fold change (FC) (TEX [16]): 0.9 | fold change (FC) (TEX [17]): 0.88 | fold change (FC) (TEX [18]): 0.17 | Activity (TEX [19]): Active | Activity (TEX [20]): Active
